Drawing on patent US8927559B2, “Quinazolinone-type compounds as CRTH2 antagonists” (Merck Sharp & Dohme Corp., priority 2010, dated 2015), this text covers Ki for 42 molecules.

The test has as its target T1, CRTH2 receptor (hCRTH2) (Homo sapiens, UniProt Q9Y5Y4).
T1 construct: expressed in transfected cells; host or cells: HEK cells (HEK-hCRTH2 cell line), membranes
T1 sequence (Q9Y5Y4 1-395): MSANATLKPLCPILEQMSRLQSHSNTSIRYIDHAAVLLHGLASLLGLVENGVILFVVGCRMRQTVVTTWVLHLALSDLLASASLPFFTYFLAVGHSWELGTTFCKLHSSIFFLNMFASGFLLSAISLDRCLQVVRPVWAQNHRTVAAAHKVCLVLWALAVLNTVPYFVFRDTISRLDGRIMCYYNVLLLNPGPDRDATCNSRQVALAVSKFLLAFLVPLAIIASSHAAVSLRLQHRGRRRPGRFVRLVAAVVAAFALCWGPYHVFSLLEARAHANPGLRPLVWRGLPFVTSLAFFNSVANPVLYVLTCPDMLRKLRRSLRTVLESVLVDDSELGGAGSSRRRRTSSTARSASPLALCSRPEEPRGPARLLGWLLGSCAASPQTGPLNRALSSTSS
Kind of test: Radioligand binding assay ([3H]PGD2 competition, membranes of HEK-hCRTH2 cell line). The note with it: 3.0 nM [3H]PGD2, HEK-hCRTH2 membranes, 60 min, room temperature. The procedure:
Competing ligands were diluted in dimethylsulfoxide (Me2SO) that was kept constant at 1% (v/v) of the final incubation volume. The reaction was initiated by the addition of 8-20 μg of membrane protein prepared from a HEK-hCRTH2 cell line. Total and non-specific binding were determined in the absence and the presence of […] PGD2, respectively. […] The reaction was routinely conducted for 60 min at room temperature and terminated by rapid filtration through prewetted (0.3% polyethyleneimine) 96-well printed filtermate (Wallac) using a Tomtec harvester. After washing with cold buffer, the filter was dried for 2 minutes in microwave, and Meltilex Scintillator sheet (Wallac) was melted on for 2 min.

Where two headings read alike, the source gives them in different places. Bounds are passed on as bounds.

One may read the Ki as a measure of affinity in units of concentration, obtained from inhibition or displacement. As to `C[C@@H](OCc1ccccc1)c1cc(-c2ccc3c(=O)n(-c4ccc(F)cc4)c(CCCCC(=O)O)nc3c2)no1` [Example 267], the Ki (read-out: Ki) lay within 10 to 50 nM.

For `C[C@@]1([C@H](O)c2ccccc2)CC(c2ccc3c(=O)n(-c4ccccc4)c(CCCCC(=O)O)nc3c2)=NO1` [Example 26J], the Ki (read-out: Ki) was ≤ 10 nM.

With `O=C(O)CCCCc1nc2cc(-c3cc(CNS(=O)(=O)Cc4ccccc4)on3)ccc2c(=O)n1-c1ccc(F)cc1` [Example 24J], the Ki (read-out: Ki) was ≤ 10 nM.

Turning to `CC1(c2cccc(C#N)c2)CC(c2ccc3c(=O)n(-c4ccc(F)cc4)c(CCCCC(=O)O)nc3c2)=NO1` (stereo not drawn) [Example 119], under “Ki”, the Ki was ≤ 10 nM.

Turning to `CC1(c2cn3ccccc3n2)CC(c2ccc3c(=O)n(-c4ccc(F)cc4)c(CCCCC(=O)O)nc3c2)=NO1` (stereo not drawn) [Example 171], the inhibition constant (Ki) (read-out: Ki) was ≤ 10 nM.

Turning to `CC1(c2ccccc2)CC(c2ccc3c(=O)n(-c4ccc(F)cc4)c(CCCCC(=O)O)nc3c2)=NO1` (stereo not drawn) [Example 15F], the inhibition constant (Ki) (Ki) is ≤ 10 nM.

As to `C[C@@]1(c2nc3cc(F)ccc3o2)CC(c2ccc3c(=O)n(-c4ccc(F)cc4)c(CCCCC(=O)O)nc3c2)=NO1` [Example 163], the inhibition constant (Ki) (read-out: Ki) was ≤ 10 nM.

For `CC1(c2ccc(C#N)cc2)CC(c2ccc3c(=O)n(-c4ccc(Cl)cc4)c(CCCCC(=O)O)nc3c2)=NO1` (stereo not drawn) [Example 113], the inhibition constant (Ki) (read-out: Ki) was ≤ 10 nM.

For the molecule `CC1(c2nc3ccc(F)cc3o2)CC(c2ccc3c(=O)n(-c4ccc(F)cc4)c(CCCCC(=O)O)nc3c2)=NO1` (stereo not drawn) [Example 169], where the note is “read-out: Ki”, the inhibition constant Ki was ≤ 10 nM.

Consider `C[C@@]1(C(=O)Nc2ccccc2O)CC(c2ccc3c(=O)n(-c4ccc(F)cc4)c(CCCCC(=O)O)nc3c2)=NO1` [Example 191], for which the Ki (read-out: Ki) was ≤ 10 nM.

`O=C(O)CCCCc1nc2cc(-c3cc(C(F)(F)F)on3)ccc2c(=O)n1-c1ccc(F)cc1` [Example 5M]: the inhibition constant Ki (read-out: Ki) is ≤ 10 nM.

Regarding `C[C@@]1([C@H](O)c2ccccc2)CC(c2ccc3c(=O)n(-c4ccc(F)cc4)c(CCCCC(=O)O)nc3c2)=NO1` [Example 26F], the Ki (read-out: Ki) was ≤ 10 nM.

For `O=C(O)CCCCc1nc2cc(C3=NO[C@H](c4nc5ccc(Cl)cc5o4)C3)ccc2c(=O)n1-c1ccc(F)cc1` [Example 152], where the note is “read-out: Ki”, the Ki lay within 10 to 50 nM.

Take `CC1(c2nc3ccccc3o2)CC(c2ccc3c(=O)n(-c4ccc(Cl)cc4)c(CCCCC(=O)O)nc3c2)=NO1` (stereo not drawn) [Example 116]: the inhibition constant (Ki) (read-out: Ki) was ≤ 10 nM.

As for `O=C(O)CCCCc1nc2cc(-c3cc(C(O)c4ccc5ccccc5n4)on3)ccc2c(=O)n1-c1ccc(F)cc1` (stereo not drawn) [Example 25H], the inhibition constant Ki (read-out: Ki) was in the range of 10 to 50 nM.

On to `O=C(O)CCCCc1nc2cc(-c3cc(COCc4cccc(-c5ccccc5)c4)on3)ccc2c(=O)n1-c1ccc(F)cc1` [Example 282], for which the Ki (read-out: Ki) is ≤ 10 nM.

Consider `Cc1cccc2[nH]c([C@]3(C)CC(c4ccc5c(=O)n(-c6ccc(F)cc6)c(CCCCC(=O)O)nc5c4)=NO3)nc12` [Example 203], for which, where the note is “read-out: Ki”, the Ki is ≤ 10 nM.

Turning to `CC1(c2nc3cc(F)ccc3o2)CC(c2ccc3c(=O)n(-c4ccc(F)cc4)c(CCCCC(=O)O)nc3c2)=NO1` (stereo not drawn) [Example 161], the Ki (read-out: Ki) is ≤ 10 nM.

`CC(c1ccc(F)cc1)C1(C)CC(c2ccc3c(=O)n(-c4ccc(F)cc4)c(CCCCC(=O)O)nc3c2)=NO1` (stereo not drawn) [Example 262]: the inhibitory constant (Ki) (read-out: Ki) was ≤ 10 nM.

As for `N#CC1CC2(CC(c3ccc4c(=O)n(-c5ccc(Cl)cc5)c(CCCCC(=O)O)nc4c3)=NO2)C1` (stereo not drawn) [Example 15Z], the Ki (read-out: Ki) is ≤ 10 nM.

In the case of `O=C(O)CCCCc1nc2cc(-c3cc(COCc4ccccc4)on3)ccc2c(=O)n1-c1ccc(F)cc1` [Example 277], the Ki (read-out: Ki) lay in the range of 10 to 50 nM.

On to `O=C(O)CCCCc1nc2cc(C3=NOC[C@@H](c4ccc(F)cc4)N3)ccc2c(=O)n1-c1ccc(F)cc1` [Example 37, (R)-5-(3-(4-fluorophenyl)-7-(5-(4-fluorophenyl)-5,6-dihydro-4H-1,2,4-oxadiazin-3-yl)-4-oxo-3,4-dihydroquinazolin-2-yl)pentanoic acid], for which, where the note is “read-out: Ki”, the inhibition constant Ki is ≤ 10 nM.

On to `CC(c1ccccc1)C1(C)CC(c2ccc3c(=O)n(-c4ccc(F)cc4)c(CCCCC(=O)O)nc3c2)=NO1` (single isomer, unassigned) [Example 42F, 5-(3-(4-fluorophenyl)-7-(5-methyl-5-(1-phenylethyl)-4,5-dihydroisoxazol-3-yl)-4-oxo-3,4-dihydroquinazolin-2-yl)pentanoic acid], for which the Ki (read-out: Ki) was ≤ 10 nM.

`CC1(c2ccc(C#N)cc2)CC(c2ccc3c(=O)n(-c4ccc(F)cc4)c(CCCCC(=O)O)nc3c2)=NO1` (stereo not drawn) [Example 114]: the Ki (read-out: Ki) is ≤ 10 nM.

Regarding `CC(c1ccccc1)c1cc(-c2ccc3c(=O)n(-c4ccc(F)cc4)c(CCCCC(=O)O)nc3c2)no1` (stereo not drawn) [Example 133], the Ki (read-out: Ki) was ≤ 10 nM.

Take `Cc1ccccc1-c1cc(-c2ccc3c(=O)n(-c4ccc(F)cc4)c(CCCCC(=O)O)nc3c2)no1` [Example 103]: for the setting “read-out: Ki”, the Ki is ≤ 10 nM.

Regarding `C[C@@H](OCc1ccc(F)c(F)c1)c1cc(-c2ccc3c(=O)n(-c4ccc(F)cc4)c(CCCCC(=O)O)nc3c2)no1` [Example 274], the Ki (read-out: Ki) was in the range of 10 to 50 nM.

Turning to `O=C(O)CCCCc1nc2cc(-c3cc(CNC(=O)c4ccc(F)cc4)on3)ccc2c(=O)n1-c1ccc(F)cc1` [Example 24R], the Ki (read-out: Ki) lay in the range of 10 to 50 nM.

Consider `C[C@H]1ON=C(c2ccc3c(=O)n(-c4ccc(F)cc4)c(CCCCC(=O)O)nc3c2)[C@H]1c1ccccc1` [Example 287], for which, for the setting “read-out: Ki”, the inhibition constant Ki is ≤ 10 nM.

For the molecule `O=C(O)CCCCc1nc2cc(C3=NO[C@@H](c4nc5ccc(Cl)cc5o4)C3)ccc2c(=O)n1-c1ccc(F)cc1` [Example 153], under “read-out: Ki”, the inhibition constant Ki was ≤ 10 nM.

For the molecule `CC1(c2cc(F)cc(F)c2)CC(c2ccc3c(=O)n(-c4ccc(F)cc4)c(CCCCC(=O)O)nc3c2)=NO1` (stereo not drawn) [Example 126], the Ki (Ki) is 10 to 50 nM.

For the molecule `O=C(O)CCCCc1nc2cc(-c3noc(-c4nc5ccc(F)cc5o4)n3)ccc2c(=O)n1-c1ccc(F)cc1` [Example 248], the Ki (read-out: Ki) lay within 10 to 50 nM.

For `O=C(O)CCCCc1nc2cc(C3=NOC4(CCCCC4)C3)ccc2c(=O)n1-c1ccc(F)cc1` [Example 15X], the Ki (read-out: Ki) is ≤ 10 nM.

On to `O=C(O)CCCCc1nc2cc(C3=NO[C@@H](c4nc5ccc(Cl)cc5s4)C3)ccc2c(=O)n1-c1ccc(F)cc1` [Example 155], for which the Ki (read-out: Ki) is ≤ 10 nM.

Regarding `Cc1ccc(S(=O)(=O)NCc2cc(-c3ccc4c(=O)n(-c5ccc(F)cc5)c(CCCCC(=O)O)nc4c3)no2)cc1` [Example 24G], the inhibitory constant (Ki) (read-out: Ki) was ≤ 10 nM.

With `CO[C@@H](c1ccccc1)c1cc(-c2ccc3c(=O)n(-c4ccc(F)cc4)c(C(C)CCCC(=O)O)nc3c2)no1` (stereo partly drawn) [Example 146], under “read-out: Ki”, the inhibition constant Ki lay within 10 to 50 nM.

With `C[C@@]1(C(=O)N2Cc3ccccc3C2)CC(c2ccc3c(=O)n(-c4ccc(F)cc4)c(CCCCC(=O)O)nc3c2)=NO1` [Example 238], the inhibition constant Ki (read-out: Ki) is 10 to 50 nM.

Regarding `C=C(c1ccccc1)c1cc(-c2ccc3c(=O)n(-c4ccc(F)cc4)c(CCCCC(=O)O)nc3c2)no1` [Example 128], the Ki (read-out: Ki) is ≤ 10 nM.

Regarding `C[C@H]1C(c2ccc3c(=O)n(-c4ccc(F)cc4)c(CCCCC(=O)O)nc3c2)=NO[C@@H]1c1ccccc1` [Example 286], under “read-out: Ki”, the inhibition constant Ki is ≤ 10 nM.

On to `CC1(c2cnc3ccccc3n2)CC(c2ccc3c(=O)n(-c4ccc(F)cc4)c(CCCCC(=O)O)nc3c2)=NO1` (stereo not drawn) [Example 230], for which the inhibition constant Ki (read-out: Ki) is 10 to 50 nM.

On to `C[C@H](c1ccc(F)cc1)c1cc(-c2ccc3c(=O)n(-c4ccc(F)cc4)c(CCCCC(=O)O)nc3c2)no1` [Example 263], for which the Ki (read-out: Ki) is ≤ 10 nM.

Take `CC1(C(=O)O)CC(c2ccc3c(=O)n(-c4ccc(F)cc4)c(CCCCC(=O)O)nc3c2)=NO1` (stereo not drawn) [Example 200]: the inhibitory constant (Ki) (read-out: Ki) lay within 10 to 50 nM.
